Assay results taken from patent US20250120916A1, “NANOTECHNOLOGY FOR CHEMOTHERA0PY DRUG CAPTURE” (The Regents of the University of California, priority 2021, published 2025).
Counter-ions that a name gives are not always drawn. Like-named read-outs stand apart in the source and are kept apart here.

What was measured:
[1] = Hydrodynamic size (DLS) and ζ-potential measurements; format: physicochemical
Procedure: Hydrodynamic size and ζ-potential measurements: A Zetasizer Nano ZS from Malvern Panalytical Ltd was used to conduct dynamic light scattering (DLS) and electrokinetic measurements in folded capillary cells (DTS1070). Samples were prepared with an ENCC concentration of 0.1 mg mL−1 in 1 mg mL−1 of NaCl solution A final DOX concentration of 0.03 mg mL−1 was used to have an ˜1:10 molar ratio of DOX to the carboxylate of ENCC For ζ-potential measurements on DOX, the concentration was lowered to 0.003 mg mL−1. At least three measurements were taken for each DLS experiment, with 11 runs per measurement. For the ζ-potential tests, the number of measurements was at least three, with up to 100 runs per measurement.

[2] = tested on: fibroblast; details: literature (75); cited from earlier work
[3] = Biodetoxification test, NIH/3T3 fibroblasts; details: mouse, NIH/3T3 fibroblasts
Procedure: (§1) Biodetoxification tests: To determine the biodetoxification effect of ENCC, 5×10^3 NIH/3T3 cells or HUVECs were seeded in 96-well plates with 200 μL of DMEM supplemented with FBS (10% v/v) and 1% v/v of Pen-Strep or EGM bullet kit HUVEC media, respectively. The cells were allowed to attach to the bottom of wells for 1 h, the media were aspirated, and the cells were rinsed with 200 μL of DPBS, followed by the addition of 200 μL of corresponding media including DOX (final concentration=400 μg mL−1), which was previously detoxified by adding ENCC (final concentration=1 mg mL−1), centrifuged at 1000 rpm for 3 min, and separated from the precipitate. The control experiments were conducted in corresponding DOX-free cell culture media or DOX-containing media without ENCC treatment. Each group consisted of 5 wells. After 8 h, the media was aspirated, the cells were rinsed twice with 200 μL of DPBS, followed by the addition of 100 μL of PrestoBlue™ reagent to each well. The cells were incubated for 1 h, and then the PrestoBlue™ absorbance was recorded using the microplate reader. Immediately afterwards, the cells were again rinsed twice with 200 μL, of DPBS, followed by the addition of 150 μL, of the Live/Dead reagents. The cells were incubated for 90 min and imaged using the fluorescence microscope. The fluorescence images were analyzed using the Imagej Software.(62)

[4] = tested on: NIH/3T3 fibroblasts; assay: Biodetoxification test, NIH/3T3 fibroblasts; details: NIH/3T3, untreated DOX 400 μg mL−1 media, 8 h
Procedure: as §1

[5] = tested on: HUVECs; assay: Biodetoxification test, HUVECs; details: untreated DOX 400 μg mL−1 media, 8 h
Procedure: as §1

[6] = Biodetoxification test, HUVECs; details: human
Procedure: as §1

[7] = tested on: red blood cells (RBCs) in human whole blood; assay: Hemolysis assessment (ASTM E2524-08); format: cell-based
Procedure: Hemolysis assessment: The hemolytic activity of ENCC was measured via exposing human whole blood, withdrawn from 3 healthy volunteer donors by another lab, to varying concentrations of ENCC and measuring the concentration of released hemoglobin in plasma according to the American Society for Testing and Materials (ASTM) E2524-08 (2013) standard analysis of hemolytic activity of nanoparticles.(61) A colorimetric technique was used to measure the oxidation of […] (Drabkin's reagent) at an absorbance of 540 nm A calibration curve was obtained using […] of pure human hemoglobin to quantify the concentration of released hemoglobin in heparinized human whole blood exposed to ENCC The blood samples were diluted in DPBS to have 10±2 mg of hemoglobin per mL. ENCC was added to a microcentrifuge tube, followed by the addition of DPBS (800 μL) and the diluted blood (100 μL). After gently mixing the samples, they were incubated for 3 h±15 min at 37° C. and centrifuged for 15 min at 14000 rpm and ambient temperature. […] A microplate reader (540 nm, BioTek UV/vis Synnergy 2, USA) was then used to measure the relative absorbance of each well against the reagent blank to correct the background (blood-free samples) absorbance. The hemolysis percentage was measured based on the hemoglobin concentration in the samples divided by the total blood hemoglobin (˜10 mg mL−1). […]

[8] = DOX:COO− ~0.1, ENCC 100 μg mL−1

In the case of `COc1cccc2c1C(=O)c1c(O)c3c(c(O)c1C2=O)C[C@@](O)(C(=O)CO)C[C@@H]3O[C@H]1C[C@H](N)[C@H](O)[C@H](C)O1` [DOX, Doxorubicin hydrochloride], the “hydrodynamic size after ENCC addition” value [1, 8] is reported as roughly 350 nm, the “ζ-potential after ENCC addition” value [1, 8] is reported as roughly −32 mV and the “hydrodynamic size of DOX aggregates” value ([1]; before ENCC addition) is reported as roughly 66 nm. The “ζ-potential of DOX aggregates” value ([1]; before ENCC addition) was “~+24 mV”, the “DOX concentration that induces fibroblast cellular toxicity” value [2] was “above 5×10^−5 M” and the viability at 8 h, 400 μg mL−1 [3] was less than 10%. For the same compound, the “decrease in metabolic activity (PrestoBlue)” value [4] was “more than 2000%”, the “decrease in metabolic activity (PrestoBlue)” value [5] was “more than 2000%” and the viability at 8 h, 400 μg mL−1 [6] was roughly 35%.

With polyethylene glycol [PEG] the “hemolysis percentage (controls)” value [7] was “does not induce significant hemolysis”.

In the case of Triton X-100, the “hemolysis percentage (controls)” value ([7]; Triton X-100 1% v/v positive control, PEG 4.4% v/v negative control) is reported as greater than 95%.
